Assay results from patent US20240383922A1, “KRAS Modulating Compounds” (Gilead Sciences, Inc., priority 2023, published 2024).
Like-named read-outs stand apart in the source and are kept apart here.

Experiments:
GDP-loaded KRAS-G12V = GDP-loaded KRAS-G12V (Homo sapiens (Human), UniProt P01116, G12V); assay: KRAS (GDP) biochemical TR-FRET probe displacement assay, KRAS-G12V; assay type: binding; conditions: 2 hours
Method: (§1) KRAS (GDP) Biochemical Assays:
(§2) Compounds were serially diluted (1:3) in DMSO. The LabCyte ECHO Acoustic dispenser was used to pre-spot the assay plates (384-well Non-Binding Surface plates, Corning, Catalog #3824) with 50 nL of compound. 5 μL of 2× enzyme concentration was added to the pre-spotted plates and incubated for 30 minutes before adding 5 μL of 2× concentration of Eu-streptavidin and Cy-5 labelled probe (10 μL final reaction volume). The plates were incubated at room temperature for 2 hours before measuring TR-FRET ratio (665 nm/615 nm) on the Envision multimode plate reader. The ratios were normalized to a positive (saturating concentration of known inhibitor) and negative (DMSO) control and plotted against the log of compound concentration.

GDP-loaded KRAS-G12C = GDP-loaded KRAS-G12C (Homo sapiens (Human), UniProt P01116, G12C); assay: KRAS (GDP) biochemical TR-FRET probe displacement assay, KRAS-G12C; assay type: binding; conditions: 2 hours
Chain of GDP-loaded KRAS-G12C (P01116-2 other isoform, or with tags, fused parts or gaps G12C): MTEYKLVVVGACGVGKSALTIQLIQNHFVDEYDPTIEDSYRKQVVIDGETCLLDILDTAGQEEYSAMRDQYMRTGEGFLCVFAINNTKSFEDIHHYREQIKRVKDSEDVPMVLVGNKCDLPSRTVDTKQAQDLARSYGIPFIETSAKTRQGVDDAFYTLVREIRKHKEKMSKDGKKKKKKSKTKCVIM
Method: as §1, §2

[1] = system: cellular pERK in ASPC-1 (KRAS G12D) cell-line; assay: Cell based pERK assay (HTRF), ASPC-1; conditions: ASPC-1 (KRAS G12D) cells, 2 hours incubation
Method: (§3) Compounds were tested in a 384-well assay format for their ability to inhibit cellular pERK in Kuramochi (WT KRAS), MIA-PaCa-2 (KRAS-G12C), ASPC-1 (KRAS G12D), and NCI-H441 (KRAS-G12V) cell-lines. Compounds were serially diluted (1:3) in DMSO. On day −1, 80 uL of cells were plated per well in the 384 well tissue-culture plates (Greiner: Cat #781080) to seed 5000 cells per wells of AsPC-1 or 7500 cells of MIA-PaCa-2, NCI-H441, and Kuramochi cell lines in RPMI (Corning: Cat #10-040-CM) with 10% fetal bovine serum (FBS) (HyClone: Cat #SH30071-03) and 1× penicillin-streptomycin-glutamate (PSG) (Corning: Cat #30-009-CI) for […] and Kuramochi cell lines and DMEM (Corning: Cat #15-018-CM) with […] and 1× PSG for MKA-PaCa-2 cell line. The plates were then incubated overnight at 37° C. and 5% CO2. On day 0, 400 nL of compound/well was added into the cell plates and mixed 5 times by pipetting using a Beckmann Biomek FX. The cell plates were then incubated for 2 hours at 37° C. and 5% CO2. HTRF Advanced Phospho-ERK1/2 ([…]) Detection Kits (PerkinElmer: Cat #64AERPEG) were used to prepare the lysis and detection solution according to manufacturer protocol. Following the 2 hour incubation, 70 μL of medium was aspirated from the plates and 10 uL of lysis and detection solution was added to the plates using a Biotek EL406 washer and dispenser. Plates were sealed and stored overnight at room temperature. HTRF ratio (665 nm/615 nm) was read by Envision multimode reader (PerkinElmer) the next day. The TR-FRET ratios were normalized to a positive (saturating concentration of known inhibitor) and negative (DMSO) control and plotted against the log of compound concentration. IC50 values were defined as the compound concentration that causes a […] in normalized signal and were calculated using a sigmoidal dose-response model to generate curve fits.

[2] = system: cellular pERK in MIA-PaCa-2 (KRAS-G12C) cell-line; assay: Cell based pERK assay (HTRF), MIA-PaCa-2; conditions: MIA-PaCa-2 (KRAS-G12C) cells, 2 hours incubation, read-out: MIAPaCa2 pERK EC50
Method: as §3

[3] = system: cellular pERK in Kuramochi (WT KRAS) cell-line; assay: Cell based pERK assay (HTRF), Kuramochi; conditions: Kuramochi (WT KRAS) cells, 2 hours incubation
Method: as §3

[4] = system: cellular pERK in NCI-H441 (KRAS-G12V) cell-line; assay: Cell based pERK assay (HTRF), NCI-H441; conditions: NCI-H441 (KRAS-G12V) cells, 2 hours incubation
Method: as §3

GDP-loaded KRAS-G12D = GDP-loaded KRAS-G12D (Homo sapiens (Human), UniProt P01116, G12D); assay: KRAS (GDP) biochemical TR-FRET probe displacement assay, KRAS-G12D; assay type: binding; conditions: 2 hours
Chain of GDP-loaded KRAS-G12D (P01116-2 other isoform, or with tags, fused parts or gaps G12D): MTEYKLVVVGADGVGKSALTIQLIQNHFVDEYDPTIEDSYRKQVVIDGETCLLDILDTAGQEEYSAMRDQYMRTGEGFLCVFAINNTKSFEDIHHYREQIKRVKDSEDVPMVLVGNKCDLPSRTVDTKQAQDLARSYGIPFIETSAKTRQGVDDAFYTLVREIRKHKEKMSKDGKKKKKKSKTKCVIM
Method: as §1, §2

[5] = target: GDP-loaded wild-type KRAS (WT) (Homo sapiens (Human), UniProt P01116); assay: KRAS (GDP) biochemical TR-FRET probe displacement assay, WT KRAS; assay type: binding; conditions: 2 hours
Chain of GDP-loaded wild-type KRAS (WT) (P01116-2 other isoform, or with tags, fused parts or gaps): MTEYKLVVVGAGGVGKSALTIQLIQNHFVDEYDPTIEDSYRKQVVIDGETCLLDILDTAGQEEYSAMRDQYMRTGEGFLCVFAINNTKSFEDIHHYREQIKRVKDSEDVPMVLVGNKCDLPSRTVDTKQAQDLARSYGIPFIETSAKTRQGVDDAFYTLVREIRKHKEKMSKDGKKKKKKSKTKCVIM
Method: as §1, §2

Chain of GDP-loaded KRAS-G12V (P01116-2 other isoform, or with tags, fused parts or gaps G12V): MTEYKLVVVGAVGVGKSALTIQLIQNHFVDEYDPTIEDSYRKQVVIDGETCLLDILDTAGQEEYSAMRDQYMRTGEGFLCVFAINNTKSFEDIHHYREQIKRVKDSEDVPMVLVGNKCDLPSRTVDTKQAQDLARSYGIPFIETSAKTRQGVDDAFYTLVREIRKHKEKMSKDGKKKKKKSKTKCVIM

SMILES | IC50 (GDP-loaded KRAS-G12V) [nM] | IC50 (GDP-loaded KRAS-G12C) [nM] | EC50 ([1]; Homo sapiens, ASPC1) [nM] | EC50 ([2]; Homo sapiens) [nM] | EC50 [3] [nM] | EC50 ([4]; Homo sapiens) [nM] | IC50 (GDP-loaded KRAS-G12D) [nM] | IC50 [5] [nM] | EC50 ([1]; read-out: AsPC1 pERK EC50) [nM] | EC50 [2] [nM] | EC50 [4] [nM]
C#Cc1c(F)ccc2cc(O)cc(-c3nc4c5c(nc(OC[C@@]67CCCN6C[C@H](F)C7)nc5c3F)N3CCOCCC3CC4)c12 (mixture of isomers) [Example 6-13] | 0.1 | 0.06 | 11.7 | 0.23 | 1.59 | 2.14 | 0.15 | 0.06 |  |  | 
C#Cc1c(F)ccc2cc(O)cc(-c3nc4c5c(nc(OC[C@@]67CCCN6C/C(=C\F)C7)nc5c3F)N3CCCOC[C@@H]3CC4)c12 [Example 6-23] | 0.05 | 0.05 | 0.44 | 0.06 | 1.14 | 0.2 | 0.04 | 0.06 |  |  | 
C#Cc1c(F)ccc2cccc(-c3nc4c5c(nc(OCC6(CN7CCCCC7)CC6)nc5c3F)N3CCCOC[C@@H]3CC4)c12 [Example 15-2] | 17.1 | 13.4 | 216 | 115 | 85.9 | 272 | 22.2 |  |  |  | 
C#Cc1c(F)ccc2cc(O)cc(-c3nc4c5c(nc(OC[C@@]67CCCN6C[C@H](F)C7)nc5c3F)N3CC(F)(F)COC[C@H]3CC4)c12 (single isomer, unassigned) [Example 17-1] |  |  | 54.9 | 0.89 | 2.95 | 7.68 |  |  |  |  | 
C#Cc1c(F)ccc2cc(O)cc(-c3nc4c5c(nc(O[C@@H](C)[C@@H]6CCCN6C)nc5c3F)N3CCCOC[C@@H]3CC4)c12 [Example 6-24] |  |  | > 1000 | 448 | 48.4 | 397 |  |  |  |  | 
C#Cc1c(F)ccc2cccc(-c3nc4c5c(nc(OC[C@@]67CCCN6C[C@H](F)C7)nc5c3F)N3CCCOC[C@H]3CC4)c12 [Example 6-4] |  |  | > 1000 | > 1000 | > 1000 | > 1000 |  |  |  |  | 
C#Cc1c(F)ccc2cc(N)cc(-c3nc4c5c(nc(OC[C@@]67CCCN6C[C@H](F)C7)nc5c3F)N3CCCOC[C@H]3C=C4C)c12 [Example 7-8] |  |  | 125 | 72.3 | 41.1 | > 1000 |  |  |  |  | 
C#Cc1c(F)ccc2cc(O)cc(-c3nc4c5c(nc(OC[C@@]67CCCN6C[C@@]6(CC6(F)F)C7)nc5c3F)N3CCCOC[C@@H]3CC4)c12 [Example 22-3] |  |  | 3.75 | 0.47 | 2.55 | 1.17 |  |  |  |  | 
C#Cc1c(F)ccc2cc(O)cc(-c3nc4c5c(nc(OC[C@@]67CCCN6C[C@H](F)C7)nc5c3F)N3CCCOC[C@H]3CC4)c12 [Example 6-5] |  |  | 85.8 | 13.6 | 44.9 | 32.2 |  |  |  |  | 
C#Cc1c(F)ccc2cc(O)cc(-c3nc4c5c(nc(OC[C@@]67CCCN6C[C@H](F)C7)nc5c3F)N3CCCOCC3C[C@H]4F)c12 (stereo partly shown) [Example 22-6] |  |  | 97.1 | 17.4 | 28.8 | 58.7 |  |  |  |  | 
C#Cc1c(F)ccc2cccc(-c3nc4c5c(nc(OC[C@@]67CCCN6[C@H](COC(=O)N(CC)CC)CC7)nc5c3F)N3CCCOC[C@@H]3CC4)c12 [Example 16-1, ((3S,7aS)-7a-((((S)-2-(8-ethynyl-7-fluoronaphthalen-1-yl)-1-fluoro-4,5,5a,6,9,10-hexahydro-8H-7-oxa-3,10a,11,13-tetraazanaphtho[1,8-ab]heptalen-12-yl)oxy)methyl)hexahydro-1H-pyrrolizin-3-yl)methyl diethylcarbamate] | 30.9 | 33.1 | 647 | 231 | 242 | 543 | 42.3 |  |  |  | 

Continued by falling EC50 [3], values first:

IC50 (GDP-loaded KRAS-G12V) [nM] | IC50 (GDP-loaded KRAS-G12C) [nM] | EC50 ([1]; Homo sapiens, ASPC1) [nM] | EC50 ([2]; Homo sapiens) [nM] | EC50 [3] [nM] | EC50 ([4]; Homo sapiens) [nM] | IC50 (GDP-loaded KRAS-G12D) [nM] | IC50 [5] [nM] | EC50 ([1]; read-out: AsPC1 pERK EC50) [nM] | EC50 [2] [nM] | EC50 [4] [nM] | SMILES
 |  |  |  | 138 |  |  |  | 85 | 46.7 | 55.3 | C#Cc1c(F)ccc2cc(O)cc(-c3c(F)c4c5c(nc(OC[C@@]67CCCN6C[C@H](F)C7)nc5c3F)N3CCCOC[C@@H]3CC4)c12 (atropisomer, axis not shown) [Example 24-1, 4-((11S,14a5)-10,12-difluoro-8-(((2R,7a5)-2-fluorotetrahydro-1H-pyrrolizin-7a(5H1)-yl)methoxy)-1,4,5,13,14,14a-hexahydro-3H-[1,4]oxazepino[4′,3′:1,7]azepino[2,3,4-de]quinazolin-11-yl)-5-ethynyl-6-fluoronaphthalen-2-ol]
 |  |  |  | 24.7 |  |  |  | 114 | 54.9 | 74.6 | CCc1c(F)ccc2cc(O)cc(-c3nc4c5c(nc(OC[C@@]67CCCN6C[C@H](F)C7)nc5c3F)N3CCCC[C@H]3CC4)c12 [Example 2-1, 5-ethyl-6-fluoro-4-((S)-1-fluoro-11-(((2R,7aS)-2-fluorotetrahydro-1H-pyrrolizin-7a(5H)-yl)methoxy)-5,5a,6,7,8,9-hexahydro-4H-3,9a,10,12-tetraazabenzo[4,5]cyclohepta[1,2,3-de]naphthalen-2-yl)naphthalen-2-ol]
 |  | 120 | 11 | 9.39 | 86.2 |  |  |  |  |  | C#Cc1c(F)ccc2cc(O)cc(-c3nc4c5c(nc(OC[C@@]67CCCN6C[C@H](F)C7)nc5c3F)N3CCCCCC3CC4)c12 (mixture of isomers) [Example 6-20]
2.77 | 3.59 | 14 | 3.25 | 3.53 | 12.8 | 3.27 | 5.56 |  |  |  | C#Cc1c(F)ccc2cc(O)cc(-c3nc4c5c(nc(OC[C@@]67CCCN6[C@H](COc6cc(C(F)(F)F)ncn6)CC7)nc5c3F)N3CCCOC[C@@H]3C=C4C)c12 [Example 18-1, 5-ethynyl-6-fluoro-4-((S)-1-fluoro-4-methyl-12-(((3S,7aS)-3-(((6-(trifluoromethyl)pyrimidin-4-yl)oxy)methyl)tetrahydro-1H-pyrrolizin-7a(5H)-yl)methoxy)-5a,6,9,10-tetrahydro-8H-7-oxa-3,10a,11,13-tetraazanaphtho[1,8-ab]heptalen-2-yl)naphthalen-2-ol]
 |  |  |  | 3.19 |  |  |  | 42.4 | 7.72 | 13 | CCc1c(F)ccc2cc(O)cc(-c3nc4c5c(nc(OC[C@@]67CCCN6C[C@H](F)C7)nc5c3F)N3CCOCCC3CC4)c12 (stereo partly drawn) [Example 8-1, 5-ethyl-6-fluoro-4-(1-fluoro-12-(((2R,7a5)-2-fluorotetrahydro-1H-pyrrolizin-7a(5H)-yl)methoxy)-5,5a,6,7,9,10-hexahydro-4H-8-oxa-3,10a,11,13-tetraazanaphtho[1,8-ab]heptalen-2-yl)naphthalen-2-ol]
 |  | 9.88 | 1.57 | 1.91 | 3.8 |  |  |  |  |  | CCc1c(F)ccc2cc(O)cc(-c3nc4c5c(nc(OC[C@@]67CCCN6C[C@H](F)C7)nc5c3F)N3CCCOC[C@@H]3CC4)c12 [Example 8-3]
0.1 | 0.06 | 11.7 | 0.23 | 1.59 | 2.14 | 0.15 | 0.06 |  |  |  | C#Cc1c(F)ccc2cc(O)cc(-c3nc4c5c(nc(OC[C@@]67CCCN6C[C@H](F)C7)nc5c3F)N3CCOCC[C@@H]3CC4)c12 (single isomer, unassigned) [Example 9-2]
